PMC8838415, “Discovery of Novel Pleuromutilin Derivatives as Potent Antibacterial Agents for the Treatment of MRSA Infection” (Molecules, 2022)
≈ marks a conversion by molar mass, not a printed value. Where two headings read alike, the source gives them in different places.

Key:
[1] = system: methicillin-resistant S. aureus (ATCC 43300); assay: MIC and MBC, broth dilution, MRSA ATCC 43300; type: cell-based; details: Staphylococcus aureus
Experimental: (§1) The synthesized pleuromutilin derivatives 8–30 were tested against four Gram-positive bacteria (MRSA ATCC 43300, S. aureus ATCC 29213 and two clinical strains of S. aureus (AD3 and 144) isolated from Guangdong Province). Tiamulin was used as the positive control in this experiment.
(§2) MIC values were tested following our previous work. The derivatives were dissolved in an aqueous solution of 2.5% tween-80 and 2.5% DMSO to make a solution with a concentration of 1000 µg/mL. The solution was diluted 12 times with MH broth to give a concentration range of 32–0.01 µg/mL. The bacteria (5 × 10^5 CFU/mL) were added in each well. For each compound concentration, three parallel experiments were set. The 96-well plate was incubated for 22–26 h at 37 °C. The MIC value was recorded as the minimal concentration that inhibits the visible growth of tested bacteria completely.
(§3) The MBC of these pleuromutilin derivatives were tested according to a previously reference. […] Then, the values of MBC were determined by laying 100 μL aliquots from the wells onto the MH agar plates without visible growth. The MH agar plate was cultured for a further 22–26 h at 37 °C.

[2] = system: S. aureus (ATCC 29213); assay: MIC and MBC, broth dilution, S. aureus ATCC 29213; type: cell-based; details: Staphylococcus aureus, ATCC29213
Experimental: as §1, §2, §3

[3] = system: S. aureus (AD3); assay: MIC and MBC, broth dilution, S. aureus AD3; type: cell-based; details: Staphylococcus aureus; S. aureus AD3 (clinical strain)
Experimental: as §1, §2, §3

[4] = system: S. aureus (144); assay: MIC and MBC, broth dilution, S. aureus 144; type: cell-based; details: Staphylococcus aureus; S. aureus 144 (clinical strain)
Experimental: as §1, §2, §3

[5] = system: 50S ribosome; assay: SPR interaction and affinity analysis; type: binding, S. aureus ATCC 43300; details: 4 °C
Experimental: S. aureus ATCC 43300 was used to prepare the 50S ribosomal subunit the same way as described previously. Cells were grown overnight in Brain Heart Infusion broth at 37 °C and harvested for 1.5 h at an OD600. Cells were washed with 10 mM Tris-HCl twice at pH = 7.5, and resuspended in 5 mL buffer A (20 mM HEPES-HCl pH = 7.5, 21 mM Mg(OAc)2, 100 mM NH4Cl, 1 mM DTT, 1 mM EDTA). Cells were broken by an ultrasound crusher. The lysate was centrifuged for 90 min at 20,000× g to clear cell debris.
The solution was layered on a sucrose cushion of 15 mL (10 mM Hepes-KOH pH 7.5, 25 mM Mg(OAc)2, 500 mM KCl, […], 1 mM DTT, 0.5 mM EDTA). Centrifugation was carried out for 15 h at 45,000 rpm using an ultracentrifuge Beckman (Beckman Coulter, Shanghai, China), Type 70Ti rotor. The crude ribosome pellet was resuspended in buffer E (10 mM Hepes-KOH pH 7.5, 10 mM Mg(OAc)2, 100 mM KCl, 1 mM DTT, 0.5 mM EDTA), then layered on 9 mL of 7–30% sucrose gradient and centrifuged in an ultracentrifuge Beckman, type SW40Ti rotor at 17,100 rpm for 15 h. The gradient was analyzed on the AKTA explorer system (Amersham, UK). The fractions corresponding to the 50S ribosomal subunit were collected and further subjected to precipitation by PEG 20,000. The 50S ribosomal subunit pellet was gently dissolved in 200 µL of storage buffer (10 mM HEPES-HCl pH = 7.5, 10 mM Mg(OAc)2, 15 mM KCl, 60 mM NH4Cl, 1 mM DTT) and stored at −80 °C.
SPR affinity analysis was performed on the bScreen LB 991 Label-free Microarray System (Berthold Technologies, Black Forest, Germany) at 4 °C and Biodot AD-1520 Array Printer (BIODOT Inc., Irvine, CA, USA) with a Photo-cross-linker SensorCHIP™. Concentrations of each compound were diluted to 100 μM with DMSO as the printing working solution for immobilization. A Biodot AD-1520 Array Printer (BIODOT Inc., CA, USA) was used to control the photo-cross-linker sensor chip and print samples. Each sample was printed four times. In order to check the chip quality and check whether the detection system works, DMSO was used as a system-negative control and rapamycin as a positive control. All positive control dots were divided into four groups and printed on the four corners of the sensor chip. The sensor chip was dried in vacuum after the array print and quickly transferred to a spectra radiator for a photo cross-linking reaction. The sensor chip was washed with C2H5OH, DMF and H2O in turn and evaporated in a N2 atmosphere for 15 min. Then, the Flowcell Cover were assembled.
The 50S ribosome was diluted separately to 200 nM, 400 nM, 800 nM, 1600 nM and 3200 nM with PBST (pH = 7.4, 0.1% Tween 20). Different concentrations of ribosome solutions were injected at a flow rate of 0.5 μL⋅s^−1 for 600 s at the associating stage at 4 °C, followed by PBST at a flow rate of 0.5⋅μL·s^−1 for 360 s at each dissociating stage. Then, the surface was regenerated with Glycine-HCl (pH = 2.0) at a flow rate of 2⋅μL·s^−1 for 300 s.
The raw data of the binding process of compounds and the 50S ribosome were recorded in real time. We compared the response unit (RU) of surface resonance to determine the different binding affinity between each sample dot. The process and analysis of association rate constants (Ka) and dissociation rate constants (Kd) and the equilibrium dissociation constant (KD, Kd/Ka) were performed using the data analysis software of the bScreen LB 991 Label-free Microarray System according to a single-site binding model (1:1 Langmuir binding) with mass transfer limitations for binding kinetics determination.

[6] = system: MRSA; assay: Neutropenic murine thigh infection model; type: in vivo, mice; details: 20 mg/kg intravenously, 24 h, compared to the no-drug control group
Experimental: The neutropenic murine thigh infection model experiment was performed as described in the literature. Six-week-old SPF-ICR female mice weighing 24–28 g were used for this study. The mice were injected with cyclophosphamide (Mead Johnson Pharmaceuticals, Evansville, Indiana—IN, USA) at a dose of 150 mg/kg 4 days and at a dose of 100 mg/kg 1 day before the experiment to reduce neutrophils and achieve immunosuppression (<0.1 × 10^9/L). A total of 0.1 mL MH broth (MRSA concentration approximately 10^7 CFU/mL) was injected into the posterior thigh of mice to establish the infection model. After the thighs of the mice were infected for 2 h, these mice were randomly divided into 3 groups (3 per group). […] A total of 24 h after the completion of the drug, the mice were euthanized and their thigh tissues were collected. Then, their thigh tissues were weighed and homogenized, respectively, in 3 mL of iced sterile saline. Tissue homogenate was serially diluted 10-fold and plated on MH agar. The resulting bacterial colonies were determined after incubation for 24 h.

[7] = system: MRSA ATCC 43300; set-up: method as in PMID 33137559; details: cited from earlier work
[8] = target: CYP3A4 (Homo sapiens, UniProt P08684); details: read-out: IC50 CYP3A4, cited from earlier work
Sequence of CYP3A4 (P08684 whole entry): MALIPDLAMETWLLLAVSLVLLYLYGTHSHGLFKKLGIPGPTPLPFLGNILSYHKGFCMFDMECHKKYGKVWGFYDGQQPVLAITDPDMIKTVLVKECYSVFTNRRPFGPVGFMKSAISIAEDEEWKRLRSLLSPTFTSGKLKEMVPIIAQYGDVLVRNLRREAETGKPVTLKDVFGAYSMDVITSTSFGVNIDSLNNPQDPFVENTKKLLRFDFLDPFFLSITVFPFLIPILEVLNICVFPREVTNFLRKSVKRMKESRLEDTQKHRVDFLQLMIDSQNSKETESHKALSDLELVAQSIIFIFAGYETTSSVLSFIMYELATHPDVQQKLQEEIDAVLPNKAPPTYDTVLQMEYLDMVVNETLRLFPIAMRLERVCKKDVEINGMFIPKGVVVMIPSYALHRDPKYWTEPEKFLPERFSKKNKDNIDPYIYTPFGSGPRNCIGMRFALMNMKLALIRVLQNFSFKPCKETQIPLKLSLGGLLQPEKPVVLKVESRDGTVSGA

Q: For `C=C[C@]1(C)C[C@@H](OC(=O)CSCCN(CC)CC)[C@]2(C)[C@H](C)CC[C@]3(CCC(=O)[C@H]32)[C@@H](C)[C@@H]1O` [Tiamulin, tiamulin, reference compound], which MBC [1] is on record?
A: 0.25 µg/mL (≈ 0.506 µM)

Q: What about the MIC [1] of the same molecule?
A: 0.25 µg/mL (≈ 0.506 µM)

Q: And the MBC [2]?
A: 1 µg/mL (≈ 2.03 µM)

Q: What about the MIC [2] of the same molecule?
A: 0.5 µg/mL (≈ 1.01 µM)

Q: What about the MBC [3] of the same molecule?
A: 1 µg/mL (≈ 2.03 µM)

Q: And the MIC [3]?
A: 1 µg/mL (≈ 2.03 µM)

Q: What about the MBC [4] of the same molecule?
A: 8 µg/mL (≈ 16.2 µM)

Q: What about the MIC [4] of the same molecule?
A: 1 µg/mL (≈ 2.03 µM)

Q: And the Avg ka ([5]; 1:1 Langmuir binding)?
A: 121 M⁻¹ s⁻¹

Q: What about the Avg kd ([5]; 1:1 Langmuir binding) of the same molecule?
A: 3.03e-06 s⁻¹

Q: And the Kd ([5]; KD = Kd/Ka)?
A: 25 nM

Q: And the “reduction of MRSA load in thigh” value [6]?
A: ~ 0.6 log10 CFU/mL

Q: What about the PAE ([7]; 2× MIC) of the same molecule?
A: 1.65 h

Q: And the PAE ([7]; 4× MIC)?
A: 2.04 h

Q: What about the IC50 [8] of the same molecule?
A: 1640 nM

Q: And the IC50 ([8]; converted with MW)?
A: 1640 nM
